These results are taken from ChEMBL document CHEMBL1909046, “DrugMatrix in vitro pharmacology data”.

Experiment [1] has as its target Tyrosine-protein kinase Lck (Homo sapiens, UniProt P06239). The experiment in a line: DRUGMATRIX: Protein Tyrosine Kinase, LCK enzyme inhibition (substrate: Poly(Glu:Tyr)). Format: cell-based, Insect cells. The note with it: insect cells; Not Active = under 50% inhibition at 10 µM.
A further experiment has as its target Glycine receptor (Rattus norvegicus, UniProt P22771+P24524+P07727+P20781). It counts as cell membranes, Wistar, Spinal cord, Membrane. Also: in other assays of this panel Not Active means under 50% inhibition at 10 µM.
The target in experiment [2] is T1, Alpha-1B adrenergic receptor (Rattus norvegicus, UniProt P15823).
T1 sequence (P15823 whole entry): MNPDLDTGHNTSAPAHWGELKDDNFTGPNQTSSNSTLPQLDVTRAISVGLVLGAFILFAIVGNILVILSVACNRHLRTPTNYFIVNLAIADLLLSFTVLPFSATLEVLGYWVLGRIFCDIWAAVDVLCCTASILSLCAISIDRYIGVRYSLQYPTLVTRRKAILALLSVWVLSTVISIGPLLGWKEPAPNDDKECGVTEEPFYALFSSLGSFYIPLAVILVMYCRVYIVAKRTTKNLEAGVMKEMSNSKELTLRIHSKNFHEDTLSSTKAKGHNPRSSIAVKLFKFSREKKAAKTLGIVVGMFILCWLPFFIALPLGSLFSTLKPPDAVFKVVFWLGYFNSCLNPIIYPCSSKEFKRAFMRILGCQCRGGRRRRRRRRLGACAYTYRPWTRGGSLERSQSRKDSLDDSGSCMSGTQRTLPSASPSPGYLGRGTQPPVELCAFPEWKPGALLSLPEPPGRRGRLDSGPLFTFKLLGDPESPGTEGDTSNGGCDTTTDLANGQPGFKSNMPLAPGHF
The experiment can be described thus: DRUGMATRIX: Alpha-1B adrenergic receptor radioligand binding (ligand: prazosin). Format: cell membranes, Wistar, Liver, Membrane. The conditions noted are these: Not Active = under 50% inhibition at 10 µM; for Ki: read-out: Ki.

For the next experiment, the target named is Estrogen receptor beta (Homo sapiens, UniProt Q92731). The note with it: sf9. Also: in other assays of this panel Not Active means under 50% inhibition at 10 µM.
The target of experiment [3] is T2, Cysteinyl leukotriene receptor 1 (Homo sapiens, UniProt Q9Y271). Also: in other assays of this panel Not Active means under 50% inhibition at 10 µM.
T2 sequence (Q9Y271 whole entry): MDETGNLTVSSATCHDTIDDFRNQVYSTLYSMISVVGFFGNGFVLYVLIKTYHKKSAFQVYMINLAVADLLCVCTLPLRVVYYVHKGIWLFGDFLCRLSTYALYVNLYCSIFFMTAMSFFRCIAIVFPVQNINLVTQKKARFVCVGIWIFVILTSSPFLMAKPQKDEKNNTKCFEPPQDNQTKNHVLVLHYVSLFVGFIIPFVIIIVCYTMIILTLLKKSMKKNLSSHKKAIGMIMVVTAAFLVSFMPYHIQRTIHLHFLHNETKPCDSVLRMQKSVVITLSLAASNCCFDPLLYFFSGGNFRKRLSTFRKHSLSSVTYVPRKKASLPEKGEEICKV
Format: cell membranes, CHO-K1, Membrane. The note with it: cho-k1.

In the next experiment the target is Melanocortin receptor 3 (Homo sapiens, UniProt P41968). It counts as cell membranes, HEK293, Membrane. The note with it: hek293. Also: in other assays of this panel Not Active means under 50% inhibition at 10 µM.
Melanocortin receptor 3, sequence (P41968 whole entry): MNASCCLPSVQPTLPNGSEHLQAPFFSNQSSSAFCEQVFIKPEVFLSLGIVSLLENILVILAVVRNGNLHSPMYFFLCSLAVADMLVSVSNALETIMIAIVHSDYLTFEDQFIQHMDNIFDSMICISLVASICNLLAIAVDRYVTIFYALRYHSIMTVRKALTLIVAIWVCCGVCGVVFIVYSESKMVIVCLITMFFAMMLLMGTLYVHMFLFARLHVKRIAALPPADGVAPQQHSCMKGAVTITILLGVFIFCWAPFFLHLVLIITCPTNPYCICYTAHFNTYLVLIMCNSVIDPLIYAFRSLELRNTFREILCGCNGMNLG

Tyrosine-protein kinase Lck, sequence (P06239 whole entry): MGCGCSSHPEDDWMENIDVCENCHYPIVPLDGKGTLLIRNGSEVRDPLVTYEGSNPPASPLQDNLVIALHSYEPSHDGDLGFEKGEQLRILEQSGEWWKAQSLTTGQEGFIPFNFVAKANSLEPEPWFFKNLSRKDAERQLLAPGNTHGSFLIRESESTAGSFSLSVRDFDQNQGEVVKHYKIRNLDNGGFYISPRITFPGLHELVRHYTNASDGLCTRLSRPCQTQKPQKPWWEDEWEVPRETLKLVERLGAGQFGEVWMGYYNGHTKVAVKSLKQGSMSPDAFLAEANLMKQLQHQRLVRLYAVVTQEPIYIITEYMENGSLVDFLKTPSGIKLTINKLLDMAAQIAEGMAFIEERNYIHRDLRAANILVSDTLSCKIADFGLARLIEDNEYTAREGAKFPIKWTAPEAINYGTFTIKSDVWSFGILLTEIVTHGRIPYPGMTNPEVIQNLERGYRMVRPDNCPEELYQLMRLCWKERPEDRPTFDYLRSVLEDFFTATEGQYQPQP
Estrogen receptor beta, sequence (Q92731 whole entry): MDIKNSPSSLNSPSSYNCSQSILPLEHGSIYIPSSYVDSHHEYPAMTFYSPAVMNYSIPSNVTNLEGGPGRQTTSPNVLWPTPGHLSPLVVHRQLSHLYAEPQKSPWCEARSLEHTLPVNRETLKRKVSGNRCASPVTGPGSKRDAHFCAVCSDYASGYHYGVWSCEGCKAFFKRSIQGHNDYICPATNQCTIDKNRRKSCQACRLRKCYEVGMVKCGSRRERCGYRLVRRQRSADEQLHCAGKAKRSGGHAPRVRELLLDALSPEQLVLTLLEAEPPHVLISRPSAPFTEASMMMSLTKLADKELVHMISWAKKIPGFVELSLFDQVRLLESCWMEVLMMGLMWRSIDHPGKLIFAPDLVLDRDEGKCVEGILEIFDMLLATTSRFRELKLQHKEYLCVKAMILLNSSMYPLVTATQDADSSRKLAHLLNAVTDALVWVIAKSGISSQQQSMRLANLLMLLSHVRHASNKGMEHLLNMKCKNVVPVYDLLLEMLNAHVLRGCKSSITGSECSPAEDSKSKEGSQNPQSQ

On to `CC(C)[C@@]1(NC(=O)[C@@H]2C[C@@H]3c4cccc5[nH]cc(c45)C[C@H]3N(C)C2)O[C@@]2(O)[C@@H]3CCCN3C(=O)[C@H](Cc3ccccc3)N2C1=O.CS(=O)(=O)O` [DIHYDROERGOCRISTINE MESYLATE], for which the IC50 (usually the concentration that inhibits the measured activity by half) in experiment [1] is “Not Active”; on Glycine receptor, “Not Active”; in experiment [2] (read-out: IC50), 2.3 nM; at Estrogen receptor beta, “Not Active”; in experiment [3], “Not Active”; on Melanocortin receptor 3, “Not Active”. In addition, the Ki (commonly a measure of affinity in units of concentration, obtained from inhibition or displacement) in experiment [2] was found to be 1.27 nM.

For the compound `CC(C)CN(C[C@@H](O)[C@H](Cc1ccccc1)NC(=O)O[C@H]1CCOC1)S(=O)(=O)c1ccc(N)cc1`, the IC50 result (in experiment [1]; on Glycine receptor; in experiment [2]; against Estrogen receptor beta; in experiment [3]; on Melanocortin receptor 3) was “Not Active” each time.

For `CN(C)CCCN1c2ccccc2Sc2ccccc21` [PROMAZINE], the IC50 entry in experiment [1] is “Not Active”; at Glycine receptor, “Not Active”; in experiment [2] (read-out: IC50), 8.19 nM; at Estrogen receptor beta, “Not Active”; in experiment [3], “Not Active”; against Melanocortin receptor 3, “Not Active”. Also, the inhibition constant (Ki) in experiment [2] worked out at 4.53 nM.

For the compound `Cc1c(C)c2c(c(C)c1O)CC[C@@](C)(CCC[C@H](C)CCC[C@H](C)CCCC(C)C)O2` [ALPHA-TOCOPHEROL], the IC50 result (in experiment [1]; against Glycine receptor; in experiment [2]; at Estrogen receptor beta; in experiment [3]; against Melanocortin receptor 3) was “Not Active” throughout.

As to `Cc1ccc(/N=C/N(C)/C=N/c2ccc(C)cc2C)c(C)c1` [AMITRAZ], the half-inhibitory concentration (IC50) entry (in experiment [1]; on Glycine receptor; in experiment [2]; against Estrogen receptor beta; in experiment [3]; against Melanocortin receptor 3) was “Not Active” each time.

As to `CN(C)c1nc(N(C)C)nc(N(C)C)n1` [ALTRETAMINE], the IC50 result (in experiment [1]; at Glycine receptor; in experiment [2]; on Estrogen receptor beta; in experiment [3]; against Melanocortin receptor 3) was “Not Active” throughout.

In the case of `COc1cc2c3cc1Oc1cc(ccc1O)C[C@@H]1c4c(cc(OC)c(O)c4Oc4ccc(cc4)C[C@@H]3N(C)CC2)CC[N+]1(C)C.[Cl-]`, the half-maximal inhibitory concentration (IC50) result (in experiment [1]; on Glycine receptor; in experiment [2]; against Estrogen receptor beta; in experiment [3]; against Melanocortin receptor 3) was “Not Active” throughout.

As to `CN(Cc1ccc(C(C)(C)C)cc1)Cc1cccc2ccccc12` [BUTENAFINE], the IC50 entry (in experiment [1]; at Glycine receptor; in experiment [2]; at Estrogen receptor beta; in experiment [3]; at Melanocortin receptor 3) was “Not Active” in each case.

As to `CC1=C2C(=CO[C@H](C)[C@H]2C)C(O)=C(C(=O)O)C1=O` [CITRININ], the IC50 entry (in experiment [1]; against Glycine receptor; in experiment [2]; on Estrogen receptor beta; in experiment [3]; against Melanocortin receptor 3) was “Not Active” throughout.

In the case of `O=C(CCCN1CC=C(n2c(=O)[nH]c3ccccc32)CC1)c1ccc(F)cc1` [DROPERIDOL], the IC50 result in experiment [1] is “Not Active”; against Glycine receptor, “Not Active”; in experiment [2] (read-out: IC50), 18 nM; against Estrogen receptor beta, “Not Active”; in experiment [3] it was “Not Active”; against Melanocortin receptor 3, “Not Active”. The Ki in experiment [2] is 9.78 nM.

`CCCCc1nc(Cl)c(CO)n1Cc1ccc(-c2ccccc2-c2nnn[nH]2)cc1` [LOSARTAN]: the IC50 result (in experiment [1]; at Glycine receptor; in experiment [2]; against Estrogen receptor beta; in experiment [3]; at Melanocortin receptor 3) was “Not Active” each time.

For `Cc1cc(C2CCCCC2)n(O)c(=O)c1` [CICLOPIROX], the IC50 entry (in experiment [1]; on Glycine receptor; in experiment [2]; on Estrogen receptor beta; in experiment [3]; on Melanocortin receptor 3) was “Not Active” throughout.

As for `CCCCN1CCCC[C@H]1C(=O)Nc1c(C)cccc1C` [LEVOBUPIVACAINE], the IC50 result (in experiment [1]; against Glycine receptor; in experiment [2]; against Estrogen receptor beta; in experiment [3]; against Melanocortin receptor 3) was “Not Active” each time.

As for `CC[C@@]1(O)C[C@H](O[C@H]2C[C@H](N(C)C)[C@H](O[C@H]3C[C@H](O)[C@H](O[C@H]4CCC(=O)[C@H](C)O4)[C@H](C)O3)[C@H](C)O2)c2c(cc3c(c2O)C(=O)c2c(O)cccc2C3=O)[C@H]1C(=O)OC` [ACLARUBICIN], the IC50 entry (in experiment [1]; at Glycine receptor; in experiment [2]; on Estrogen receptor beta; in experiment [3]; against Melanocortin receptor 3) was “Not Active” throughout.

For `COc1cc2nc(N3CCN(C(=O)C4COc5ccccc5O4)CC3)nc(N)c2cc1OC` (configuration not stated) [DOXAZOSIN], the 50% inhibitory concentration (IC50) result is “Not Active” in experiment [1]; “Not Active” at Glycine receptor; 0.751 nM in experiment [2] (read-out: IC50); “Not Active” against Estrogen receptor beta; “Not Active” in experiment [3]; “Not Active” on Melanocortin receptor 3. The Ki in experiment [2] amounted to 0.416 nM.

`C[C@H](CS)C(=O)N1CCC[C@H]1C(=O)O` [CAPTOPRIL]: the IC50 entry (in experiment [1]; against Glycine receptor; in experiment [2]; on Estrogen receptor beta; in experiment [3]; on Melanocortin receptor 3) was “Not Active” in each case.

On to `OC(Cn1cncn1)(Cn1cncn1)c1ccc(F)cc1F` [FLUCONAZOLE], for which the IC50 result (in experiment [1]; against Glycine receptor; in experiment [2]; against Estrogen receptor beta; in experiment [3]; against Melanocortin receptor 3) was “Not Active” throughout.

`O=C1CC[C@@H](N2C(=O)c3ccccc3C2=O)C(=O)N1`: the IC50 result (in experiment [1]; against Glycine receptor; in experiment [2]; against Estrogen receptor beta; in experiment [3]; against Melanocortin receptor 3) was “Not Active” each time.
